These are literature values, as cited in patent publication US11147884B2, “Inhibitors of NHE-mediated antiport” (Ardelyx, Inc., priority 2017, dated 2021).

For the data set the following is noted: human absorption data, from Ertl et al., J. Med. Chem., 2000; cited from earlier work.

`OC[C@@H](O)[C@@H](O)[C@H](O)[C@H](O)CO` [mannitol]: the “$ FA” value is listed as 26. Turning to `NC[C@H]1CC[C@H](C(=O)O)CC1` [tranexamic acid], the “$ FA” value was 55.

For `CCN1CCCC1CNC(=O)c1cc(S(N)(=O)=O)ccc1OC` (stereo not shown) [sulpiride], the “$ FA” value was 36.

Regarding `OC[C@H]1O[C@H](OC[C@H]2O[C@H](O[C@]3(CO)O[C@H](CO)[C@@H](O)[C@@H]3O)[C@H](O)[C@@H](O)[C@@H]2O)[C@H](O)[C@@H](O)[C@H]1O` [raffinose], the “$ FA” value is on record as 0.3. Turning to `CC(=O)Nc1ccc(OCC(O)CNC(C)C)cc1` (stereo not shown) [practolol], the “$ FA” value was 95.

On to `O=C(O)P(=O)(O)O` [foscarnet], for which the “$ FA” value was 17.

As for `CC(C)NCC(O)COc1cccc2[nH]ccc12` (stereo not shown) [pindolol], the “$ FA” value was 92. On to `O=C(O)c1cc(/N=N/c2ccc(S(=O)(=O)Nc3ccccn3)cc2)ccc1O` [sulfasalazine], for which the “$ FA” value is 12. Turning to `O=C(O)c1cc(/N=N/c2ccc(O)c(C(=O)O)c2)ccc1O` [olsalazine], the “$ FA” value is 2.3. For the compound `C=CCc1ccccc1OCC(O)CNC(C)C` (stereo not shown) [alprenolol], the “$ FA” value was 96.

Turning to `Cc1ccccc1N1C(=O)c2cc(S(N)(=O)=O)c(Cl)cc2NC1C` (stereo not shown) [metolazone], the “$ FA” value is 64. In the case of `OC[C@H]1O[C@@H](O[C@@H]2[C@@H](CO)OC(O)(CO)[C@H]2O)[C@H](O)[C@@H](O)[C@H]1O` (mixture of isomers) [lactulose], the “$ FA” value is on record as 0.6.

As to `C=CCOc1ccccc1OCC(O)CNC(C)C` (stereo not shown) [oxyprenolol], the “$ FA” value is on record as 97.
